Laboratory results as given in patent US7642272B2, “Cannabinoid receptor ligands” (Schering Corporation, priority 2003, dated 2010).
Read-outs that look alike come from different tables or passages of the source.

Biological target: T1, recombinant human cannabinoid CB2 receptor (Homo sapiens, UniProt P34972)
T1 construct: purchased Receptor Biology RB-HCB2
Test: competition with [3H] CP-55,940 for binding to recombinant cannabinoid receptor membranes (CB2)
Description: Potential cannabinoid receptor ligands were screened for the ability to compete with [^3H] CP-55,940 for binding to recombinant cannabinoid receptors. Test compounds were serially diluted in Diluent Buffer (50 mM Tris pH 7.1, 1 mM EDTA, 3 mM MgCl2, 0.1% BSA, 10% DMSO, 0.36% methyl cellulose (Sigma M-6385)) from stocks prepared in 100% DMSO. Aliquots (10 μL) were transferred into 96-well microtiter plates. Membrane preparations of recombinant human cannabinoid CB2 receptor (Receptor Biology #RB-HCB2) or recombinant human cannabinoid CB1 receptor (Receptor Biology #RB-HCB1) were diluted to 0.3 mg/mL in Binding Buffer (50 mM Tris pH 7.2, 1 mM EDTA, 3 mM MgCl2, 0.1% BSA). Aliquots (50 μL) were added to each well of the microtiter plate. The binding reactions were initiated by addition of [^3H] CP-55,940 (New England Nuclear # NET 1051; specific activity=180 Ci/mmol) to each well of the microtiter plate. Each 100 μl reaction mixture contained 0.48 nM [^3H] CP-55,940, 15 μg membrane protein in binding buffer containing 1% DMSO and 0.036% methyl cellulose. Following incubation for 2 hours at room temperature, the reactions were filtered through 0.5% polyethylenimine-coated GF/C filter plates (UniFilter-96, Packard) with a TomTec Mark 3U Harvester (Hamden, CT). The filter plate was washed 5 times with binding buffer, rotated 180°, then re-washed 5 times with binding buffer. Bound radioactivity was quantitated following addition of 30 μl of Packard Microscint 20 scintillant in a Packard TopCount NXT microplate scintillation counter. Non-linear regression analysis of the resulting data was performed using Prism 2.0b (GraphPad, San Diego, Calif.).
The activities (potencies) for the compounds of the invention are determined by measuring their Ki values.

[1] = 0.48 nM [3H] CP-55,940, 15 μg membrane protein, 2 hours at room temperature, read-out: CB2 Ki

T1 sequence (P34972 whole entry): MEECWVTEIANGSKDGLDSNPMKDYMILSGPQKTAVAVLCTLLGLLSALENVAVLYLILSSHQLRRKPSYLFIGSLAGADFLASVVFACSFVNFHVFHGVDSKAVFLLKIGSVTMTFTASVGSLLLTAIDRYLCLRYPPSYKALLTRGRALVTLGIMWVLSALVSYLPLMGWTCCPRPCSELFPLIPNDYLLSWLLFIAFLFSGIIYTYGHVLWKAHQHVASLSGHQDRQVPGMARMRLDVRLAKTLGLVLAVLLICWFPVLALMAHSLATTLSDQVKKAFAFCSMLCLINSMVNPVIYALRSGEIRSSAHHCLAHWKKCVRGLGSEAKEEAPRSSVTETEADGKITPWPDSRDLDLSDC

`CC(C)c1ccc(S(=O)(=O)c2c(S(=O)(=O)c3ccccn3)c3ccccc3n2C)cc1` [AQ] showed a Ki [1] of under 20 nM.

With `CC(C)c1ccc(S(=O)(=O)c2ccc(C(C)C)cc2S(=O)(=O)c2ccccn2)cc1` [AJ] the Ki [1] was under 20 nM.

For `CC(C)c1ccc(Cc2ccc(OC(F)(F)F)cc2S(=O)(=O)c2ccccc2F)cc1` [C], the Ki was under 20 nM.

For `CC(C)c1ccc(S(=O)(=O)c2ccc(OC(F)(F)F)cc2S(=O)(=O)c2ccccc2F)cc1` [F], the Ki was under 20 nM.

Work on `CC(C)c1ccc(S(=O)(=O)c2c(S(=O)(=O)c3ccccc3F)c3ccccc3n2C)cc1` [AO] yielded a Ki of under 20 nM.

With `COc1ccc(S(=O)(=O)c2ccc(C3CC3)cc2)c(S(=O)(=O)c2ccccc2F)c1` [AH] the Ki [1] was under 20 nM.

With `COCCOc1ccc(S(=O)(=O)c2ccc(C(C)C)cc2)c(S(=O)(=O)c2ccccc2F)c1` [S] the Ki [1] was under 20 nM.

Compound `O=S(=O)(c1ccc(C2CC2)cc1)c1ccc(Cl)cc1S(=O)(=O)c1ccccc1F` [K] has a Ki [1] of under 20 nM.

With `COc1ccc(S(=O)(=O)c2ccc(C(C)C)cc2)c(S(=O)(=O)c2ccccn2)c1` [AG] the Ki was under 20 nM.

`CC(C)c1ccc(S(=O)(=O)c2ccc(OC(F)(F)F)cc2S(=O)(=O)c2ccccn2)cc1` [G] was tested, and the Ki [1] was under 20 nM.

In the case of `CC(C)Oc1ccc(S(=O)(=O)c2ccc(C(C)C)cc2)c(S(=O)(=O)c2ccccc2F)c1` [AK], the Ki [1] is reported as under 20 nM.
